{"source": "patent US8592466B2", "about": "“Methods for treating conditions caused by higher-than-normal dopaminergic activity in basal ganglia” (Neuropill, Inc., priority 2008, dated 2013)", "key": {"[1]": {"test_system": "dopamine release in the ventral striatum", "conditions": "animal data, cited from earlier work"}, "[2]": {"test": "RPR 102681 plasma concentration by LC/MS/MS", "type": "in vivo, humans", "conditions": "for concentration at 95 min / concentration at 215 min: human, plasma, read-out: mean plasma concentration (3-day average); for concentration at 95 min: 95 minutes post dose; for concentration at 215 min: 215 minutes post dose", "description": "[…] Pharmacokinetics (peak and trough levels) of RPR 102681 during treatment at a dose of 200 mg (day 13), 400 mg (day 20) and 800 mg (day 27) b.i.d. were determined.\nThe plasma concentration of RPR 102681 was determined with a validated liquid chromatography assay with mass spectrometric detection (LC/MS/MS) at the Department of Biopharmaceutical Sciences, University of California, San Francisco, Calif.\nThe sample plasma specimens for determining plasma concentration (354 RPR 102681 plasma specimens and 109 Prolactin plasma specimens) were frozen and packed in dry ice upon receipt by the Analytical Division/Drug Studies Unit at South San Francisco, Calif. These samples were kept frozen at approximately −20° C. until analyzed.\nHuman plasma samples (0.100 mL) were analyzed for RPR 102681 with an LC/MS/MS procedure utilizing a PE Sciex III system equipped with a BDS Hypersil C18 column (4.6×15 mm, 5 μm particle size), a mobile system consisting of acetonitrile:water:trifluoroacetic acid (70:30:0.06) (v/v) with 0.0006% (w/v) ammonium phosphate dibasic; mass spectrometric detection was accomplished with a sample inlet, heated nebulizer, positive ionization by Atmospheric Pressure Chemical Ionization (APCI) and mass scanning by Multiple Reaction Monitoring (MRM) analysis. Sample preparation consisted of precipitation of 0.100 mL of plasma with acetonitrile containing the internal standard (prednisolone acetate) prior to separation by LC/MS/MS. The linear range of the assay was 1.0 to 160 ng/mL, with a lower limit of quantitation of 1.0 ng/mL.\nStandard curve and quality control (QC) samples were generated by spiking interference free human plasma samples with known amounts of RPR 102681 and internal standard (IS). These standard curve, assay, and QC samples were processed, then 40 μl aliquots were injected into the LC/MS/MS system for chromatographic separation and subsequent mass spectrometric detection. The peak area ratios of RPR 102681 to IS were calculated for each sample from the measured peak areas obtained by LC/MS/MS. Finally, spiked concentrations and RPR 102681 to IS peak area ratios of the standard curve samples were fit by 1/x weighted least squares linear regression to the equation for the best straight line (y=mx+b, where y=peak area ratio and x=RPR 102681 concentration), and drug concentration in assay sample were calculated by the equation from the RPR 102681 to IS peak area ratios obtained by LC/MS/MS."}, "[3]": {"test": "Phase I cocaine interaction study: 12-lead ECG", "type": "in vivo, humans", "description": "Changes in ECG readings during saline infusion as compared to those taken during cocaine infusions were also reported.\nA 12 Lead ECG was scheduled at Pre-Intake Screening, Intake Screening, Discharge and follow-up all of which are non-infusion days. […] All subjects completed the non-infusion ECG's at baseline and discharge.\nTo evaluate subjects' responses to cocaine infusion, measurements after cocaine 40 mg infusion were compared to those prior to any infusion (reading at −10 min). Readings at 4 min and 40 min were used when the first infusion was cocaine while readings at 64 min and 100 min were used when the second infusion was cocaine. […] The RPR 102681 group also had decreased RR and QT duration from baseline at 40 min post cocaine infusion on day 15. In the placebo group, some scattered significant decreases from baseline were observed including PR duration at 4 min post cocaine on day 8 and RR duration at 4 min post cocaine on day 8 and 15. […] However, the statistical significance might not hold if multiplicity adjustment was performed in these multiple comparisons."}, "[4]": {"test": "NIH study: treatment of cocaine abuse", "conditions": "humans"}, "[5]": {"test": "Cocaine and BE pharmacokinetics under RPR 102681 treatment", "conditions": "post-treatment RPR 102681 doses vs baseline"}, "[6]": {"test": "Solubility in organic solvents and aqueous media", "type": "physicochemical"}}, "note": "Read-outs that look alike come from different tables or passages of the source."}
{"smiles": "CC(C(=O)O)c1cccc(NC(=O)NCC(=O)N2C(C(=O)OC(C)(C)C)CSC2c2ccccc2F)c1", "note": "[RPR 102681, (2S)-2-{3-[3-({[(2R,4R)-4-tert-Butoxycarbonyl-2-(2-fluorophenyl)]-3-thiazolidinyl}carbonylmethyl)ureido]phenyl}propionic acid]", "values": [{"measurement": "dopamine release in the ventral striatum (microdialysis)", "setting": "[1]; intraperitoneal administration", "result": "stimulates dopamine release"}, {"measurement": "release of dopamine compared to baseline values", "setting": "[1]; intraperitoneal, highest dose tested 20 mg/Kg", "result": "almost tripled"}, {"measurement": "mean plasma concentration at 2-3.5 hours relative to 8-11 hours", "setting": "[2]; 200 mg dose", "result": "approximately 19 times"}, {"measurement": "mean plasma concentration at 2-3.5 hours relative to 8-11 hours", "setting": "[2]; 400 mg dose", "result": "~15", "unit": "times"}, {"measurement": "dose-proportionality of plasma concentration", "setting": "[2]; 400 mg to 800 mg dose range, 95 and 215 minutes post-dose", "result": "Severe deviation from dose-proportionality"}, {"measurement": "mean plasma concentration at 2-3.5 hours relative to 8-11 hours", "setting": "[2]; 800 mg dose", "result": "~8", "unit": "times"}, {"measurement": "least-squares mean of dose-normalized concentration", "setting": "[2]; 95 minutes post-dose, day 13, 200 mg", "result": 1.26, "unit": "ng/mL"}, {"measurement": "least-squares mean of dose-normalized concentration", "setting": "[2]; 95 minutes post-dose, day 14, 200 mg", "result": 1.12, "unit": "ng/mL"}, {"measurement": "least-squares mean of dose-normalized concentration", "setting": "[2]; 95 minutes post-dose, day 15, 200 mg", "result": 1.25, "unit": "ng/mL"}, {"measurement": "least-squares mean of dose-normalized concentration", "setting": "[2]; 95 minutes post-dose, day 20, 400 mg", "result": 1.36, "unit": "ng/mL"}, {"measurement": "least-squares mean of dose-normalized concentration", "setting": "[2]; 95 minutes post-dose, day 21, 400 mg", "result": 0.87, "unit": "ng/mL"}, {"measurement": "least-squares mean of dose-normalized concentration", "setting": "[2]; 95 minutes post-dose, day 22, 400 mg", "result": 1.05, "unit": "ng/mL"}, {"measurement": "least-squares mean of dose-normalized concentration", "setting": "[2]; 95 minutes post-dose, day 27, 800 m", "result": 0.78, "unit": "ng/mL"}, {"measurement": "least-squares mean of dose-normalized concentration", "setting": "[2]; 95 minutes post-dose, day 28, 800 m", "result": 0.58, "unit": "ng/mL"}, {"measurement": "least-squares mean of dose-normalized concentration", "setting": "[2]; 95 minutes post-dose, day 29, 800 m", "result": 0.43, "unit": "ng/mL"}, {"measurement": "least-squares mean of dose-normalized concentration", "setting": "[2]; 215 minutes after dose, day 13, 200 mg", "result": 0.70, "unit": "ng/mL"}, {"measurement": "least-squares mean of dose-normalized concentration", "setting": "[2]; 215 minutes after dose, day 14, 200 mg", "result": 0.78, "unit": "ng/mL"}, {"measurement": "least-squares mean of dose-normalized concentration", "setting": "[2]; 215 minutes after dose, day 15, 200 mg", "result": 0.62, "unit": "ng/mL"}, {"measurement": "least-squares mean of dose-normalized concentration", "setting": "[2]; 215 minutes after dose, day 20, 400 mg", "result": 0.58, "unit": "ng/mL"}, {"measurement": "least-squares mean of dose-normalized concentration", "setting": "[2]; 215 minutes after dose, day 21, 400 mg", "result": 0.54, "unit": "ng/mL"}, {"measurement": "least-squares mean of dose-normalized concentration", "setting": "[2]; 215 minutes after dose, day 22, 400 mg", "result": 0.66, "unit": "ng/mL"}, {"measurement": "least-squares mean of dose-normalized concentration", "setting": "[2]; 215 minutes after dose, day 27, 800 mg", "result": 0.42, "unit": "ng/mL"}, {"measurement": "least-squares mean of dose-normalized concentration", "setting": "[2]; 215 minutes after dose, day 28, 800 mg", "result": 0.39, "unit": "ng/mL"}, {"measurement": "least-squares mean of dose-normalized concentration", "setting": "[2]; 215 minutes after dose, day 29, 800 mg", "result": 0.33, "unit": "ng/mL"}, {"measurement": "concentration at 95 min", "setting": "[2]; 200 mg b.i.d. oral", "result": 242, "unit": "ng/mL"}, {"measurement": "concentration at 95 min", "setting": "[2]; 400 mg b.i.d. oral", "result": 422, "unit": "ng/mL"}, {"measurement": "concentration at 95 min", "setting": "[2]; 800 mg b.i.d. oral", "result": 441, "unit": "ng/mL"}, {"measurement": "concentration at 215 min", "setting": "[2]; 200 mg b.i.d. oral", "result": 140, "unit": "ng/mL"}, {"measurement": "concentration at 215 min", "setting": "[2]; 400 mg b.i.d. oral", "result": 255, "unit": "ng/mL"}, {"measurement": "concentration at 215 min", "setting": "[2]; 800 mg b.i.d. oral", "result": 285, "unit": "ng/mL"}, {"measurement": "PR/RR/QT duration following cocaine infusion vs pre infusion", "setting": "[3]; cocaine 40 mg infusion", "result": "seemed to decrease"}, {"measurement": "clinical significance of PR/RR/QT changes", "setting": "[3]; cocaine 40 mg infusion", "result": "not clinically significant"}, {"measurement": "pre infusion RR and QT duration vs intake screening", "setting": "[3]; days 8, 15, 22, 29", "result": "No significant difference"}, {"measurement": "pre infusion PR duration vs intake screening", "setting": "[3]; days 8, 15, 22, 29, Signed Rank Test", "result": "significantly longer"}, {"measurement": "ECG mean values for VR, PR, QT, RR and QRS", "setting": "[3]; non-infusion days", "result": "within normal range"}, {"measurement": "efficacy in treating cocaine abuse", "setting": "[4]", "result": "ineffective"}, {"measurement": "cocaine and BE pharmacokinetic parameters, difference from baseline", "setting": "[5]", "result": "No statistically significant differences"}, {"measurement": "solubility", "setting": "[6]; acetone, organic solvent or mixture", "result": 250, "unit": "mg/mL"}, {"measurement": "solubility", "setting": "[6]; aqueous media, aqueous buffer, pH less than 6", "result": "< 1", "unit": "mg/mL"}, {"measurement": "solubility", "setting": "[6]; diethyl ether, organic solvent or mixture", "result": 100, "unit": "mg/mL"}, {"measurement": "solubility", "setting": "[6]; dimethylformamide, organic solvent or mixture, dimenthylformamide", "result": 1000, "unit": "mg/mL"}, {"measurement": "solubility", "setting": "[6]; ethanol, organic solvent or mixture", "result": 1000, "unit": "mg/mL"}, {"measurement": "solubility", "setting": "[6]; ethyl acetate, organic solvent or mixture", "result": 400, "unit": "mg/mL"}, {"measurement": "solubility", "setting": "[6]; methylene chloride, organic solvent or mixture", "result": 500, "unit": "mg/mL"}, {"measurement": "solubility", "setting": "[6]; sodium phosphate, pH 7.4, aqueous buffer", "result": 20, "unit": "mg/mL"}, {"measurement": "solubility", "setting": "[6]; toluene, organic solvent or mixture", "result": 100, "unit": "mg/mL"}, {"measurement": "solubility", "setting": "[6]; water", "result": 0.1, "unit": "mg/mL"}]}
